# Source: patent publication US8906925B2, “Pyrido[4,3-B]indoles containing rigid moieties” (Medivation Technologies, Inc., priority 2008, dated 2014)
# Like-named read-outs stand apart in the source and are kept apart here.
# What was measured:
# [1] = biological target: human dopamine D2L receptor (Homo sapiens, UniProt P14416); assay: Dopamine D2L radioligand binding ([3H]Spiperone); details: compound at 1 μM
# Excerpt: Non-specific binding was estimated in the presence of […] Haloperidol. Receptor proteins were filtered and washed, the filters were then counted to determine [^3H]Spiperone specifically bound. […] Biochemical assay results are presented as the percent inhibition of specific binding in Table 9.
# histamine receptor H1 = histamine receptor H1 (Homo sapiens, UniProt P35367); assay: Histamine H1 radioligand binding ([3H]Pyrilamine); details: read-out: Histamine Binding (1 μM) H1, percent inhibition of specific binding, 1 μM
# Chain of histamine receptor H1 (P35367 whole entry): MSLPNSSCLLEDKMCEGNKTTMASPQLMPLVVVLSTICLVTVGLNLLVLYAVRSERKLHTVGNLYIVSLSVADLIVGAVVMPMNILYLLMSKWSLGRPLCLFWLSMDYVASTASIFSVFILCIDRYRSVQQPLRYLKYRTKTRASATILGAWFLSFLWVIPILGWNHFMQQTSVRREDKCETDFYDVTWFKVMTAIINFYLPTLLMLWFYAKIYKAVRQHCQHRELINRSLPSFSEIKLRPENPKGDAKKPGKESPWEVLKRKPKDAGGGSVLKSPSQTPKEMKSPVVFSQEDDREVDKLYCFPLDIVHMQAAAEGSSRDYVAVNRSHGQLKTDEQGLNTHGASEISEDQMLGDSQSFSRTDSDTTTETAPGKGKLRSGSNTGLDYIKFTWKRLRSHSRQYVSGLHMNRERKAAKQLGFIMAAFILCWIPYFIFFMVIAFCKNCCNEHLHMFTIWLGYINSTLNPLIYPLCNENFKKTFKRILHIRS
# In short: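 Values are percent inhibition of specific [3H]pyrilamine (1.2 nM) binding with compounds at ≤1 μM (1% DMSO vehicle); 180 min incubation at 25 °C, pH 7.4 Tris buffer, on CHO-expressed human H1 receptor; 1 μM pyrilamine defined nonspecific binding, bound ligand counted after filtration.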
# [2] = […] [3H]Spiperone, read-out: Inhibition of ligand binding, Dopamine D2L (percent inhibition of specific binding)
# [3] = percent inhibition of specific binding, read-out: Inhibition of ligand binding, Dopamine D2L
# Chain of human dopamine D2L receptor (P14416 whole entry): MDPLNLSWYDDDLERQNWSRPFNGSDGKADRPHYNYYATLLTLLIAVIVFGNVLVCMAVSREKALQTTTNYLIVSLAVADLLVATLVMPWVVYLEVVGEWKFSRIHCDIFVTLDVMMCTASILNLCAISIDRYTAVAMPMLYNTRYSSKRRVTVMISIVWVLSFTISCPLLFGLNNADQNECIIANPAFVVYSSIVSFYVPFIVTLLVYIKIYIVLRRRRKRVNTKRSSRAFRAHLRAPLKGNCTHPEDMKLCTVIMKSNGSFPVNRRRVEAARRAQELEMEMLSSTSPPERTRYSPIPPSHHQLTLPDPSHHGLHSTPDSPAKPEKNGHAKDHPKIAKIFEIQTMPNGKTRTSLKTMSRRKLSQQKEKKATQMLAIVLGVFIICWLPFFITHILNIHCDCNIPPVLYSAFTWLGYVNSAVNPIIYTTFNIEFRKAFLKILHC
Structure (SMILES),"inhibition at 1 µM [1, 2] [%]",inhibition at 1 µM (histamine receptor H1) [%],"inhibition at 1 µM [1, 3] [%]"
CNC(=O)c1ccc(/C(C)=C/n2c3c(c4cc(C)ccc42)CN(C)CC3)cc1 [compound 435],71,11,
"Cc1ccc2c(c1)c1c(n2CC(C)(O)c2ccncc2)CCN(CC(F)(F)F)C1 (centres unmarked) [Compound 341, 1-(8-methyl-2-(2,2,2-trifluoroethyl)-3,4-dihydro-1H-pyrido[4,3-b]indol-5(2H)-yl)-2-(pyridin-4-yl)propan-2-ol]",,11,2
Cc1ccc2c(c1)c1c(n2/C(=C(/F)c2ccc(C)nc2)c2ccc(C)nc2)CCN(C)C1 [compound 419],20,52,
"CNC(=O)c1ccc(/C(F)=C/n2c3c(c4cc(C)ccc42)CN(C)CC3)cc1F [compound 424, (Z)-4-(2-(2,8-dimethyl-3,4-dihydro-1H-pyrido[4,3-b]indol-5(2H)-yl)-1-fluorovinyl)-2-fluoro-N-methylbenzamide]",20,43,
"C/C(=C\n1c2c(c3cc(N4CCCC4)ccc31)CN(C)CC2)c1ccncc1 [compound 446, (E)-2-methyl-5-(2-(pyridin-4-yl)prop-1-enyl)-8-(pyrrolidin-1-yl)-2,3,4,5-tetrahydro-1H-pyrido[4,3-b]indole]",42,-4,
"C/C(=C\n1c2c(c3cc(C)ccc31)CN(C)CC2)c1cc(C)nc(C)c1 [compound 399, (E)-5-(2-(2,6-dimethylpyridin-4-yl)prop-1-enyl)-2,8-dimethyl-2,3,4,5-tetrahydro-1H-pyrido[4,3-b]indole]",73,13,
"Cc1ccc2c(c1)c1c(n2C#Cc2ccncc2)CCN(C)C1 [Compound No. 495, 2,8-dimethyl-5-(pyridin-4-ylethynyl)-2,3,4,5-tetrahydro-1H-pyrido[4,3-b]indole]",58,52,
"C/C(=C\n1c2c(c3cc(Cl)ccc31)CN(C)CC2)c1nccs1 [Compound 370, (E)-2-(1-(8-chloro-2-methyl-3,4-dihydro-1H-pyrido[4,3-b]indol-5(2H)-yl)prop-1-en-2-yl)thiazole]",63,72,
"C=C(Cn1c2c(c3cccc(F)c31)CN(C)CC2)c1ccncc1 [Compound No. 363, 6-fluoro-2-methyl-5-(2-(pyridin-4-yl)allyl)-2,3,4,5-tetrahydro-1H-pyrido[4,3-b]indole]",53,62,
"C/C(=C\n1c2c(c3cc(Cl)ccc31)CN(CCC(C)(C)O)CC2)c1ccc(F)cc1 [compound 414, (E)-4-(8-chloro-5-(2-(4-fluorophenyl)prop-1-enyl)-3,4-dihydro-1H-pyrido[4,3-b]indol-2(5H)-yl)-2-methylbutan-2-ol]",100,61,
"C/C(=C\n1c2c(c3cc(C)ccc31)CN(C1CC1)CC2)c1ccncc1 [Compound 292, (E)-2-cyclopropyl-8-methyl-5-(2-(pyridin-4-v)prop-1-enyl)-2,3,4,5-tetrahydro-H-pyrido[4,3-b]indole]",,11,71
"C/C(=C\n1c2c(c3cc(Cl)ccc31)CN(C)CC2)c1cnccn1 [Compound 333, (E)-8-chloro-2-methyl-5-(2-(pyrazin-2-yl)prop-1-enyl)-2,3,4,5-tetrahydro-1H-pyrido[4,3-b]indole]",,29,51
"C/C(=C\n1c2c(c3cc(C)ccc31)CN(C)[C@H](C)C2)c1ccncc1 [compound 390, (R,E)-2,3,8-trimethyl-5-(2-(pyridin-4-yl)prop-1-enyl)-2,3,4,5-tetrahydro-1H-pyrido[4,3-b]indole]",97,49,
"COc1ccc(C#Cn2c3c(c4cc(C)ccc42)CN(C)CC3)cn1 [Compound No. 494, 5-((6-methoxypyridin-3-yl)ethynyl)-2,8-dimethyl-2,3,4,5-tetrahydro-1H-pyrido[4,3-b]indole]",13,2,
"C/C(=C\n1c2c(c3cc(Cl)ccc31)CN(C)CC2)c1ccsc1 [compound 388, (E)-8-chloro-2-methyl-5-(2-(thiophen-3-yl)prop-1-enyl)-2,3,4,5-tetrahydro-1H-pyrido[4,3-b]indole]",99,100,
"Cc1ccc2c(c1)c1c(n2/C=C(\F)c2ccncc2)CCN(C)C1 [compound 426, (Z)-5-(2-fluoro-2-(pyridin-4-yl)vinyl)-2,8-dimethyl-2,3,4,5-tetrahydro-1H-pyrido[4,3-b]indole]",32,50,
"Cc1ccc2c(c1)c1c(n2C#Cc2ccccc2)CCN(C)C1 [Compound No. 490, 2,8-dimethyl-5-(phenylethynyl)-2,3,4,5-tetrahydro-1H-pyrido[4,3-b]indole]",74,18,
"C/C(=C\n1c2c(c3cc(C)ccc31)CNCC2)c1ccncc1 [compound 401, (E)-8-methyl-5-(2-(pyridin-4-yl)prop-1-enyl)-2,3,4,5-tetrahydro-1H-pyrido[4,3-b]indole]",57,8,
"CN1CCc2c(c3cc(Cl)ccc3n2C=C(c2ccccc2)c2ccccc2)C1 [compound 407, 8-chloro-5-(2,2-diphenylvinyl)-2-methyl-2,3,4,5-tetrahydro-1H-pyrido[4,3-b]indole]",74,10,
"COc1c(F)cc(/C(C)=C/n2c3c(c4cc(C)ccc42)CN(C)CC3)cc1F [compound 456, (E)-5-(2-(3,5-difluoro-4-methoxyphenyl)prop-1-enyl)-2,8-dimethyl-2,3,4,5-tetrahydro-1H-pyrido[4,3-b]indole]",80,17,
"C/C=C(/Cn1c2c(c3cc(C)ccc31)CN(C)CC2)c1ccncc1 [Compound No. 361, (E)-2,8-dimethyl-5-(2-(pyridin-4-yl)but-2-enyl)-2,3,4,5-tetrahydro-1H-pyrido[4,3-b]indole]",51,96,
"COc1ccc(/C(C)=C/n2c3c(c4cc(Cl)ccc42)CN(C)CC3)cn1 [compound 454, (E)-8-chloro-5-(2-(6-methoxypyridin-3-yl)prop-1-enyl)-2-methyl-2,3,4,5-tetrahydro-1H-pyrido[4,3-b]indole]",80,21,
"C/C(=C\n1c2c(c3cc(Cl)ccc31)CN(C)CC2)C1CCCCC1 [Compound 367, (E)-8-chloro-5-(2-cyclohexylprop-1-enyl)-2-methyl-2,3,4,5-tetrahydro-1H-pyrido[4,3-b]indole]",48,64,
"COc1ccc(/C(F)=C/n2c3c(c4cc(C)ccc42)CN(C)CC3)cn1 [compound 430, (Z)-5-(2-fluoro-2-(6-methoxypyridin-3-yl)vinyl)-2,8-dimethyl-2,3,4,5-tetrahydro-1H-pyrido[4,3-b]indole]",25,72,
"C/C(=C\c1ccccc1)n1c2c(c3cc(C)ccc31)CN(C)CC2 [compound 428, (E)-2,8-dimethyl-5-(1-phenylprop-1-en-2-yl)-2,3,4,5-tetrahydro-1H-pyrido[4,3-b]indole]",57,97,
